From patent US9394561B2, “Cyclic peptide production” (National Research Council of Canada, priority 2011, dated 2016)
“Also recorded” adds a separate entry of the source. Square brackets hold non-standard residues; d marks the D form. Ends that are not written are not given here.

Key:
S. vaccaria PCY1 = test: In vitro assay of recombinant S. vaccaria PCY1 with wild type and mutant presegetalin substrates, products detected by LC/MS; assay type: biochemical, Saponaria vaccaria; set-up: key to CP (cyclic peptide product detected by LC/MS after in vitro assay) / LP (linear peptide product detected by LC/MS after in vitro assay): +=presence; −=absence; conditions: for cyclic peptide production by S. vaccaria PCY1 (in words) / linear peptide production by S. vaccaria PCY1 (in words): LC/MS and MS/MS; for CP (cyclic peptide product detected by LC/MS after in vitro assay) / LP (linear peptide product detected by LC/MS after in vitro assay): substrates tested for cyclization by S. vaccaria PCY1
S. vaccaria PCY1, sequence (as listed by the source): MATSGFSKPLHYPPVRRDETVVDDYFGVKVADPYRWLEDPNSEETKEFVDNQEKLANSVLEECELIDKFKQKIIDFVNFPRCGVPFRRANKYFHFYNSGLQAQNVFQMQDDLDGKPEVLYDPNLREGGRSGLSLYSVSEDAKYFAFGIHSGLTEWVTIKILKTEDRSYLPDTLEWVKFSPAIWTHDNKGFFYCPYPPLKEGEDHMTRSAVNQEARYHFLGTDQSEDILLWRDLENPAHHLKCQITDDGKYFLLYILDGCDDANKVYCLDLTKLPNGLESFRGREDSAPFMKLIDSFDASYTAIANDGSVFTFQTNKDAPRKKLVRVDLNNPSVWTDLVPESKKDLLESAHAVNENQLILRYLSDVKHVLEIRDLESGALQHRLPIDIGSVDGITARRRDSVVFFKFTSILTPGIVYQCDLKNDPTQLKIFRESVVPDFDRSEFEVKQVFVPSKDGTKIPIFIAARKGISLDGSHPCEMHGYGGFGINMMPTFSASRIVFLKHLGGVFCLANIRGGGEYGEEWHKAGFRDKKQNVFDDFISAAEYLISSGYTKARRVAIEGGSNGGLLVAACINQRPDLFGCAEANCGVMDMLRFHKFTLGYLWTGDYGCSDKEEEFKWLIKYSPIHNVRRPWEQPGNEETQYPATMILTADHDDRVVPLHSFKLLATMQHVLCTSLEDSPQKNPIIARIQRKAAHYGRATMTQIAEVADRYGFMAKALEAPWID
Protocol: The gene corresponding to S. vaccaria PCY1 was cloned and expressed in E. coli with a His-tag. HisPur Cobalt Resin™ (Thermo Scientific) was used for purification of recombinant PCY1. The purified PCY1 was quantified using BCA method (Pierce; http://http://www.piercenet.com/) with BSA as a calibration standard. The in vitro assay contained 20 mM Tris buffer (pH 8.5), 100 mM NaCl, 5 mM DTT, 0.2 mg BSA, and 1.5 μg of substrates (wild type and mutant presegetalins, procured from Bio Basic Inc with >90% purity) and was initiated by the addition of 0.3 μg of PCY1, in a total reaction volume of 100 μl. The assay was incubated at 30° C. for up to 1 h and stopped by placing reactions in dry ice. The assays were lyophilized, re-suspended in methanol, evaporated and re-suspended in 50:50 v/v methanol/water for LC/MS analysis.
Ion trap ESI+ LC/MS/MS analysis was used to detect production of cyclic peptides using an Agilent 6320 Ion Trap LC/MS system under default Smart Parameter settings. The analyzer and ion optics were adjusted to achieve proper resolution (Agilent Installation Guide #G2440-90105) using the ESI Tuning Mix (Agilent #G2431A). The mass spectrometer scanned from 50 to 2200 mass units at 8100 mass units sec^−1 with an expected peak width of 0.35 atomic mass units. For auto MS/MS, the trap isolation width was 4 atomic mass units. The associated Agilent 1200 LC was fitted with a Zorbax 300 EXTEND-C18 column (150×2.1 mm, 3.5 μm particle size) maintained at 35° C. The binary solvent system consisted of 90:10 v/v water/acetonitrile containing 0.1% formic acid and 0.1% ammonium formate (solvent A) and 10:90 v/v water/acetonitrile containing 0.1% formic acid and 0.1% ammonium formate (solvent B). The separation gradient was 90:10 A/B to 50:50 A/B in 3 ml over 20 min.
In order to characterize substrate specificity of PCY1 and understand the segetalin A biosynthetic mechanism, a total of 44 substrates (Table 3) were tested for the PCY1 activity and the results are briefly summarized in Table 3. The last two columns in Table 3 summarize product type detected by LC/MS after in vitro assays (CP is cyclic peptide and LP is linear peptide, +=presence, −=absence, NA=not applicable). The 44 substrates were classified as follows: • (A) Presegetalin A1 [14,32], a wild type (WT) precursor of segetalin A • (B) Truncated mutants of presegetalin A1[14,32] • (C) Alanine scanning mutants corresponding to variants of the mature segetalin A sequence • (D) Alanine scanning mutants of the C-terminal region of presegetalin A1[14,32] • (E) D-amino acid mutants corresponding to variants of the mature segetalin A sequence • (F) Insertion mutants corresponding to variants of the mature segetalin A sequence • (G) Other A-class and F-class presegetalins • (H) Putative cyclic peptide precursors from Dianthus caryophyllus

[1] = tested on: Dianthus superbus PCY1-c250; test: In vitro assay of recombinant Dianthus superbus PCY1-c250 with presegetalin substrates, LC/MS; assay type: biochemical
Dianthus superbus PCY1-c250, sequence (as listed by the source): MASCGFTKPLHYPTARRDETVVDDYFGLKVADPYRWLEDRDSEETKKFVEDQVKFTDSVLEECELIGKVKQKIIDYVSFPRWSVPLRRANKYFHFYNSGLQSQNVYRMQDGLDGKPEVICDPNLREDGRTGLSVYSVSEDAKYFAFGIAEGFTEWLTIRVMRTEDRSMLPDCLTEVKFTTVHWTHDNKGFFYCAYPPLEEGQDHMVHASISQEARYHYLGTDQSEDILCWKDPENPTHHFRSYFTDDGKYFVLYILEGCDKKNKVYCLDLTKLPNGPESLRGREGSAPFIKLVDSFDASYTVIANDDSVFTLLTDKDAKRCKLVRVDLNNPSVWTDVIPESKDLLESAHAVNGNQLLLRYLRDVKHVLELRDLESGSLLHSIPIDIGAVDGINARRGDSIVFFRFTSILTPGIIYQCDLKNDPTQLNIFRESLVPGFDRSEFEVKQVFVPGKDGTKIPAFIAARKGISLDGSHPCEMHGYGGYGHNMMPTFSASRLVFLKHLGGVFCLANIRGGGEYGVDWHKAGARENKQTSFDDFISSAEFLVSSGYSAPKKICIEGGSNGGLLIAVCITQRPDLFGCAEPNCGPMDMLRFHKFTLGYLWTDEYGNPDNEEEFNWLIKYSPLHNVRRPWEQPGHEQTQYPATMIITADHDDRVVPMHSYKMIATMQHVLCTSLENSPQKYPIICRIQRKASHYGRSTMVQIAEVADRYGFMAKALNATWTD
Source text: (§1) To test for activity of the homologues of S. vaccaria PCY1, two cDNAs encoding were cloned from Dianthus superbus (c250 and c1141 contigs) and one from Silene vulgaris (c150 contig) essentially as described for Saponaria vaccaria PCY1 in Example 2. These were named Dianthus superbus Pcy1-c250, Dianthus superbus Pcy1-c1141 and Silene vulgaris Pcy1-c150, Briefly, gene specific forward and reverse primers were used to PCR amplify the aforementioned contigs based on homologue identification in EST collections from Dianthus leaves and Silene roots. The Dianthus superbus (c250 and c1141 contigs) and Silene vulgaris (c150 contig) PCY1 homologues were assayed with 15 μg/mL presegetalin A1[14,32] in vitro as previously described for semi-purified plant extracts to determine whether they can catalyze the production of segetalin A from presegetalin A1[14,32]. The assays were initiated by the addition of 120 ng (c250), or 138 ng (c1141) purified recombinant Dianthus superbus or 4 μg Silene vulgaris Pcy1 respectively, in a total reaction volume of 100 μL. […] Thus, there are additional enzymes in the Caryophyllaceae family, which have the same enzymatic activity as S. vaccaria PCY1.
Dianthus superbus PCY1-c250 was also assayed with the alanine scan mutants and the activities were compared with those of S. vaccaria PCY1.

[2] = tested on: Dianthus superbus PCY1-c1141; test: In vitro assay of recombinant Dianthus superbus PCY1-c1141 with presegetalin substrates, LC/MS; assay type: biochemical
Dianthus superbus PCY1-c1141, sequence (as listed by the source): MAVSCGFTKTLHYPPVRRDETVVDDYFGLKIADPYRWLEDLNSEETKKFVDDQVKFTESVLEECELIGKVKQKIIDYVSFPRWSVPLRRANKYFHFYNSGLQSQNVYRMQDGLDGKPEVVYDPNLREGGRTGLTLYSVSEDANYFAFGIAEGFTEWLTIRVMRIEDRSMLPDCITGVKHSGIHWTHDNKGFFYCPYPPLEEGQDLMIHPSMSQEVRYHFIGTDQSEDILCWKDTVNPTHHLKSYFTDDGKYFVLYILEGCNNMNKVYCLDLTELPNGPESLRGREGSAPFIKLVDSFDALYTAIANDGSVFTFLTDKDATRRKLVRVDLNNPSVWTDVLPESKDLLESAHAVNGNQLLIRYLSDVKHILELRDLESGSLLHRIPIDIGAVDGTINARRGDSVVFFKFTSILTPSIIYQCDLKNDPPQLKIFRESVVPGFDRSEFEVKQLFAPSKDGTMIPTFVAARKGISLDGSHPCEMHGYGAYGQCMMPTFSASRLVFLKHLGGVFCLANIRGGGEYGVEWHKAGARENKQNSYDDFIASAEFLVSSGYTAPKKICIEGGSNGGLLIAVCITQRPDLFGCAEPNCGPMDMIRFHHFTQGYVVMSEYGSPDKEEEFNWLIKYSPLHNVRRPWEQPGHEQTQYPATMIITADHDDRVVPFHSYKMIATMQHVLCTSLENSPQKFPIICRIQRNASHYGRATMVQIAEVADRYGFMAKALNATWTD
Source text: as §1
Seven mutant peptides containing D-amino acids were synthesized (No. 26 to 32 in Table 3) and tested with S. vaccaria PCY1 under optimized in vitro conditions. In initial experiments, each amino acid corresponding to segetalin A was substituted with its D-amino acid consecutively from position 15 to 19 (No. 26 to 30). Glycine at position 14 is achiral and no substitution was required. […] To test this possibility two peptides were synthesized No. 31 and No. 32 in Table 3. […] The cyclic peptides were detected as diagnostic ions (M+H)^+ and (M+Na)^+ in LC/MS and their presence was further confirmed by MS/MS analysis. […] The cyclic peptide produced from No. 32 has alternating D- and L-forms of amino acids (with the exception of the glycine), which gives it the potential to self-assemble into nanotube under appropriate conditions (Gadhiri 1993).

[3] = tested on: Silene vulgaris Pcy1-c150; test: In vitro assay of recombinant Silene vulgaris PCY1-c150 with presegetalin A1[14,32], LC/MS; assay type: biochemical; conditions: 15 μg/mL presegetalin A1[14,32], 4 μg enzyme
Silene vulgaris Pcy1-c150, sequence (as listed by the source): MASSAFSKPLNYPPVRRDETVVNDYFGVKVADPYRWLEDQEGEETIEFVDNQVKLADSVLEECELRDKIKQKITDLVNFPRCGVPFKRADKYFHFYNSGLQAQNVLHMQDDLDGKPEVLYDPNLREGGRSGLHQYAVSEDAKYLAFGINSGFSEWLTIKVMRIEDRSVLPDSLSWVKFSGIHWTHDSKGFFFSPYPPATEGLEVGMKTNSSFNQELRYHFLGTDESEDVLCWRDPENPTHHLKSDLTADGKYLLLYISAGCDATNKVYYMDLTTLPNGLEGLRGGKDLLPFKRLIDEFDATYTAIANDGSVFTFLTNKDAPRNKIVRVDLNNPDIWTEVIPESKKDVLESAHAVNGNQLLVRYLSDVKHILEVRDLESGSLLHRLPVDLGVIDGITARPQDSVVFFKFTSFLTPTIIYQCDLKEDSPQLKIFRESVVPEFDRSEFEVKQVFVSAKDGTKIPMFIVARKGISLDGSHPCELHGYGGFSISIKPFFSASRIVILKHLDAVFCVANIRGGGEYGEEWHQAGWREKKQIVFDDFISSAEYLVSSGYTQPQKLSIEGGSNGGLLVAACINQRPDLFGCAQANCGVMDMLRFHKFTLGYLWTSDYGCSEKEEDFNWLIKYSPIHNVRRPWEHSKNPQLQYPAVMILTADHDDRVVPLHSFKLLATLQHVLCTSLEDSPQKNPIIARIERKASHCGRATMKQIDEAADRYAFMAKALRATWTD
Source text: as §1

Row | Substance | cyclic peptide production by S. vaccaria PCY1 (in words) (S. vaccaria PCY1) | linear peptide production by S. vaccaria PCY1 (in words) (S. vaccaria PCY1) | CP (cyclic peptide product detected by LC/MS after in vitro assay) (S. vaccaria PCY1) | LP (linear peptide product detected by LC/MS after in vitro assay) (S. vaccaria PCY1) | cyclic peptide production by D. superbus PCY1-c250 (in words) [1] | linear peptide production by D. superbus PCY1-c250 (in words) [1] | cyclic peptide production by D. superbus PCY1-c1141 (in words) [2] | production of segetalin A by Silene vulgaris c150 polypeptide (in words) [3]
1 | 7 (AVPVWAFQAKDVENASAPV; Presegetalin A1[14,32] variant aa14 = alanine) [compound 7] | less product | highest amount of linear peptide product | + | + | no detectable cyclic peptide | a large amount of linear peptide was detected |  | 
2 | 11 (GVPVAAFQAKDVENASAPV; Presegetalin A1[14,32] variant aa18 = alanine) [compound 11] |  |  | + | − | relatively more cyclic peptide than did S. vaccaria PCY1 |  |  | 
3 | 31 (GV[dP]VAAFQAKDVENASAPV) [compound 31] | made cyclic peptides |  | + | − |  |  | made cyclic peptides | 
4 | 32 (GV[dP]V[dA]AFQAKDVENASAPV) [compound 32] | made cyclic peptides |  | + | − |  |  | made cyclic peptides; also recorded: relatively more active; also recorded: higher than the activity of S. vaccaria PCY1 | 
5 | 36 (GLSFAFPAKDAENASSPV; Presegetalin D1[14,31]) [compound 36] | cyclic peptide products were detected from all of them |  | + | + |  |  |  | 
6 | 37 (GLSFAFQAKDAENASSPV; Presegetalin D1[14,31] P20Q) [compound 37] | resulted in a 5 amino acid cyclic peptide product |  | + | − |  |  |  | 
7 | 38 (GVKYAFQPKDSENASAPV; Presegetalin G1[14,31]) [compound 38] | cyclic peptide products were detected from all of them |  | + | − |  |  |  | 
8 | 40 (GLPGWPFQAKDVENASAPV; Presegetalin L1[14,32]) [compound 40] | cyclic peptide products were detected from all of them |  | + | − |  |  |  | 
9 | 41 (FSASYSSKPIQTQVSNGMDNASAPV; Presegetalin F1[14,38]) [compound 41] | cyclic peptide products were detected from all of them |  | + | − |  |  |  | 
10 | 42 (FGTHGLPAPIQVPNGMDDACAPM; Presegetalin J1[14,36]) [compound 42] | cyclic peptide products were detected from all of them |  | + | − |  |  |  | 
11 | 43 (GPIPFYGFQAKDAENASVPV; - Dianthus Precursor A[14,33]) [compound 43] | small amount of cyclic peptide production |  | + | − |  |  |  | 
12 | Presegetalin A1[14,32] (GVPVWAFQAKDVENASAPV; listed as Saponaria vaccaria) [No. 1] | showed the formation of segetalin A | linear segetalin A |  |  | strong enzymatic activity |  | strong enzymatic activity | weaker than that of S. vaccaria PCY1
13 | Presegetalin A1[14,32]F20A (GVPVWAAQAKDVENASAPV; Presegetalin A1[14,32] F20A) [No. 13] |  | presence of linear peptide was confirmed by MS/MS analysis |  |  |  |  |  | 
14 | Presegetalin A1[14,32]W18w (GVPV[dW]AFQAKDVENASAPV) [No. 29] | relatively weakly converted to cyclic peptide |  |  |  |  |  |  | 
